Values of other authors as cited in patent US20040208906A1, “Pharmaceutical composition for topical administration” (Daiichi Suntory Pharma Co., Ltd., priority 1999, published 2004).

What was measured:
[1] = test system: Gram-positive bacteria (MSSA, Streptococcus pyogenes, Streptococcus pneumoniae, PRSP, oral streptococci, enterococci); details: Gram-positive bacteria incl. MSSA
[2] = test system: pathogens of periodontitis, including Porphyromonas gingivalis

Q: For C[C@@H](O)[C@H]1C(=O)N2C(C(=O)[O-])=C([C@H]3CCCO3)S[C@H]12.[Na+] [Compound 1, sodium (+)-(5R,6S)-6-[(R)-1-hydroxyethyl]-7-oxo-3-[(R)-2-tetrahydrofuryl]-4-thia-1-azabicyclo[3.2.0]hept-2-ene-2-carboxylate], which antibacterial activity [1] is on record?
A: potent antibacterial activity

Q: What about the antibacterial activity [2] of the same compound?
A: potent antibacterial activity
